Source: publication PMC10444817, “New proapoptotic chemotherapeutic agents based on the quinolone-3-carboxamide scaffold acting by VEGFR-2 inhibition” (Scientific Reports, 2023)
Several values for one entry are separate records, joined by “and”; a condition that tells them apart may be missing. Equal values may be shown once.

Columns and labels:
[1] = target: VEGFR-2 (Homo sapiens, UniProt P35968); assay: VEGFR-2 kinase inhibition assay (Kinase-Glo MAX luminescence kit, BPS Bioscience); details: for IC50: VEGFR-2 inhibitory activity IC50, average of 3 independent runs ± SE; for Fold increase in VEGFR-2 inhibitory activity compared to para methyl substituted derivatives 10b and 10k: 4-isopropyl vs 4-CH3 analogue
Sequence of VEGFR-2 (P35968 20-1356): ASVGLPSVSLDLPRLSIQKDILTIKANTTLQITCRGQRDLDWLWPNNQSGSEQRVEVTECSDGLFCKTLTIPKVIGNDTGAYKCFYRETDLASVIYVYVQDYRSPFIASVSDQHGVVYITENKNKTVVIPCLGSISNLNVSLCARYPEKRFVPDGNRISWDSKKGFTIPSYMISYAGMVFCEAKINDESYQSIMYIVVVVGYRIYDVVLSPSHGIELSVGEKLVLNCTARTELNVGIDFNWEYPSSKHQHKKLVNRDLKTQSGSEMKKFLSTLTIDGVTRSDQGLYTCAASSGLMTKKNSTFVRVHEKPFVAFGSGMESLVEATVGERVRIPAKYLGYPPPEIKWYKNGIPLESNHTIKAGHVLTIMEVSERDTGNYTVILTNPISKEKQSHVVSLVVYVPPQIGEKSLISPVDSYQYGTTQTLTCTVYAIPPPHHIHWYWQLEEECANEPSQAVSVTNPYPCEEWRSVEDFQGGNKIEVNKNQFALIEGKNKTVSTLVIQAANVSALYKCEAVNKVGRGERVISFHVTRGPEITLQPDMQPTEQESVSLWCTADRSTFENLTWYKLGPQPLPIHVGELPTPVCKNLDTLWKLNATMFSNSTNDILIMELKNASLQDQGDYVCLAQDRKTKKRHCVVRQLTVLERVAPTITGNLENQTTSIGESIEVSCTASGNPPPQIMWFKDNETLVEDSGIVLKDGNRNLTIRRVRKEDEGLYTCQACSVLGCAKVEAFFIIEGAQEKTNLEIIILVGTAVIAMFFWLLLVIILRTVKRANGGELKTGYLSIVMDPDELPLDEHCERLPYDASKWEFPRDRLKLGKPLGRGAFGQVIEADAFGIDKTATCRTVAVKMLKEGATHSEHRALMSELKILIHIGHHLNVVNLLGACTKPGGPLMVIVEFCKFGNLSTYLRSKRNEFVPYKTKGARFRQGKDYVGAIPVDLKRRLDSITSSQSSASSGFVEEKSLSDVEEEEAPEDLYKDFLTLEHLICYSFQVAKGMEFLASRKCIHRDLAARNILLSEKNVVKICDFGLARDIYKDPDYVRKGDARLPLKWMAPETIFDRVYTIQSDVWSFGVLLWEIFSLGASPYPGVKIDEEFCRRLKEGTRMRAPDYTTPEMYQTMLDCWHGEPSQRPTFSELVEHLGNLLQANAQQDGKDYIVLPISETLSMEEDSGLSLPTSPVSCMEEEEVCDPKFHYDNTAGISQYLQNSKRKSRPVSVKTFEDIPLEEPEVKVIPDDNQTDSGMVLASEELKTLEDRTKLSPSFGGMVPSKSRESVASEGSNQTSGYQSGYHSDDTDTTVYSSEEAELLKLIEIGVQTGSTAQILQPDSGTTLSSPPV

[2] = system: HepG2 cells; assay: MTT cytotoxicity against HepG2 tumor cell line; details: read-out: Cytotoxic activity against HepG2 cell line IC50, 48 h, average of 3 independent runs ± SE
[3] = MTT cytotoxicity against THLE-2 normal liver cell line; assay type: cell-based, human; details: human, THLE-2 normal liver epithelial cells; MTT, 48 h; measured in triplicates; read-out: CC50 cytotoxic activity against THLE-2 normal cell line
Method: (§1) The produced formazan was measured by means of the spectrophotometer ROBONIK P2000 at a wavelength of 570 nm. The Cytotoxic concentration values (CC50) of the assessed compounds were reported as the mean of three independent runs ± SE[69].

[4] = system: Transformed Human Liver Epithelial-2 normal cell line (THLE-2); assay: as above; assay type: cell-based; details: CC50 (THLE-2) / IC50 (HepG2)
Method: as §1

[5] = system: Bax; assay: Western blotting of Bax protein expression in HepG2 cells; assay type: cell-based, human; details: HepG2, 48 h at IC50 concentration; normalized to β-actin
Method: (§2) Western blotting was performed to assess the relative normalized protein expression of the apoptotic proteins Bax and Caspase-7 in HepG2 cancer cells when pre-treated for 48 h with compound 10i at its IC50 concentration in comparison to non-treated HepG2 cells. […] The current findings provide strong evidence for the positive apoptotic activity of compound 10i in HepG2 cells that accompanies its inhibitory activity on cell proliferation.
(§3) Cells were harvested and washed with phosphate buffer saline (PBS). The cells were then lysed in 10 mM Tris–HCl, 100 mM NaCl, 0.5% Triton X-100, pH 7.6 with EDTA-free Protease Inhibitor Cocktail. This was followed by a centrifugation step at 13,000g for 20 min at 4 °C and direct transfer to sodium dodecyl sulfate–polyacrylamide gel (SDS–PAGE). Western blot analysis was performed using primary antibodies against the target proteins and HRP-conjugated secondary antibodies (Table 12). The chemiluminescence reaction was performed using the ECL western blot HRP substrate (Pierce, Thermo Fisher Scientific). Finally, densitometric quantification of Western blot protein bands were performed with IMAGEJ Software.

[6] = system: Caspase-7; assay: Western blotting of Caspase-7 protein expression in HepG2 cells; assay type: cell-based, human; details: HepG2, 48 h at IC50 concentration; normalized to β-actin
Method: as §2, §3

[7] = system: VEGFR-2 gene; assay: RT-qPCR of VEGFR-2 gene expression in HepG2 cells; assay type: cell-based, human; details: HepG2, 48 h at IC50 concentration; normalized to β-actin
Method: RT-qPCR was performed to assess the relative normalized gene expression of VEGFR-2 gene in HepG2 cancer cells when pre-treated for 48 h with compound 10i at its IC50 concentration utilizing non-treated HepG2 cells as negative control.
Total RNA was isolated from both 10i-treated and untreated HepG2 cell line pellets using Qiagen RNeasy Mini kit Cat# No. 74104 according to the manufacturer’s guidelines. Then, quantification and quality assessment of the isolated RNA samples were determined by the Nanodrop spectrophotometer at A230, A260 and A280.
cDNA synthesis was performed for RNA using the Promega cDNA Synthesis AMV Reverse Transcriptase Kit (cat# M5108) according to the manufacturer’s instructions. The cDNA synthesis was performed on Bio-Rad 100 Thermal cycler.
Primers for the VEGFR-2 gene were designed and synthesized followed by primer validation and optimization of PCR amplification conditions. RT-qPCR expression analysis for the required genes (ß-actin and VEGFR-2) has been done using the Qiagen Quanti Nova SYBR Green PCR Kit (cat # 208052).

[8] = system: HepG2 cells; assay: Cell cycle analysis by DNA flow cytometry; assay type: cell-based, human; details: HepG2, 48 h at IC50 concentration; frequency of cells, triplicate ± SD
Method: DNA flow cytometry was used to analyze the cell cycle kinetics of HepG2 cancer cells when pre-treated for 48 h with compound 10i at its IC50 concentration. Non-treated HepG2 cells were considered as negative control.
The assay was performed as previously mentioned. In brief, HepG2 cells were pre-incubated with compound 10i at its IC50 concentration for 48 h. Then, about 10^5 cells were attained by trypsinization and washed with phosphate buffer saline (PBS). This was followed by a resuspension step with 60% ice-cold ethanol and incubation till fixation occurs. The fixed cells were washed again and resuspended in a buffer that included 50 μg/mL RNAase A and 10 μg/mL propidium iodide. Finally, cells were incubated at 37 °C in the dark for 20 min and analyzed for the cell cycle kinetics using flow cytometry where FL2 (λex/em 535/617 nm) was used as the signal detector (ACEA Novocyt flowcytometer, ACEA Biosciences Inc., San Diego, CA, USA). A query of 12,000 events was recommended for each sample. ACEA NovoExpress software (ACEA Biosciences Inc., San Diego, CA, USA) was used for analysis.

[9] = system: HepG2 cells; details: cited from earlier work
[10] = system: HepG2 cells; details: at its IC50 for 48 h; cited from earlier work
[11] = system: Bax; design: method as in Li et al. 44; details: ref Li et al. 44; cited from earlier work
[12] = system: Caspase-7; design: method as in Li et al. 44; details: ref Li et al. 44; cited from earlier work

SMILES | IC50 [1] | IC50 [2] | melting point | further results
O=C(Nc1ccc(NC(=O)c2c[nH]c3ccc(Cl)cc3c2=O)cc1)Nc1ccc2ncsc2c1 [Compound 10h, N-(4-(3-(Benzo[d]thiazol-6-yl)ureido)phenyl)-6-chloro-4-oxo-1,4-dihydroquinoline-3-carboxamide] | 937 ± 0.04 nM | 14900 ± 520 nM | > 300 °C | Fold decrease in VEGFR-2 inhibitory activity ([1]; benzothiazole derivative, comparator not named): about 5.5 fold
Cc1ccc(NC(=O)Nc2ccc(NC(=O)c3c[nH]c4ccc(F)cc4c3=O)cc2)cc1 [Compound 10k, 6-Fluoro-4-oxo-N-(4-(3-(p-tolyl)ureido)phenyl)-1,4-dihydroquinoline-3-carboxamide] | 2226 ± 0.09 nM | 34200 ± 2060 nM | > 300 °C | 
Cc1ccccc1NC(=O)Nc1ccc(NC(=O)c2c[nH]c3ccc(F)cc3c2=O)cc1 [Compound 10m, 6-Fluoro-4-oxo-N-(4-(3-(o-tolyl)ureido)phenyl)-1,4-dihydroquinoline-3 carboxamide] | 181 ± 0.01 nM | 13000 ± 750 nM | > 300 °C | 
CC(C)c1ccc(NC(=O)Nc2ccc(NC(=O)c3c[nH]c4ccc(Cl)cc4c3=O)cc2)cc1 [Compound 10i, 6-Chloro-N-(4-(3-(4-isopropylphenyl)ureido)phenyl)-4-oxo-1,4-dihydroquinoline-3-carboxamide] | 36 ± 0.01 nM | 1600 ± 170 nM |  | CC50 at 48 h [3]: 21000 nM; Selectivity index (SI) [4]: 13.13; Induction of Bax protein expression compared to negative control [5]: up to 20 folds; Fold increase in VEGFR-2 inhibitory activity compared to para methyl substituted derivatives 10b and 10k [1]: more than 16 fold; Induction of Caspase-7 protein expression compared to negative control [6]: ≤ 6 folds; Decrease of VEGFR-2 gene expression compared to untreated cells [7]: 84%; Freq G1 [8]: ***2.067 ± 0.189; Freq G2 [8]: ***49.80 ± 1.466; Freq S [8]: ***7.920 ± 0.2117; Freq Sub-G1 [8]: ***20.80 ± 0.7102
O=C(Nc1ccc(NC(=O)c2c[nH]c3ccc(F)cc3c2=O)cc1)Nc1cccc(C(F)(F)F)c1 [Compound 10o, 6-Fluoro-4-oxo-N-(4-(3-(3-(trifluoromethyl)phenyl)ureido)phenyl)-1,4-dihydroquinoline-3-carboxamide] | 38 ± 0.02 nM | 2760 ± 100 nM | > 300 °C | CC50 at 48 h [3]: 15200 nM; Selectivity index (SI) [4]: 5.52
O=C(Nc1ccc(NC(=O)c2c[nH]c3ccc(Cl)cc3c2=O)cc1)Nc1cccc(C(F)(F)F)c1 [Compound 10f, 6-Chloro-4-oxo-N-(4-(3-(3-(trifluoromethyl)phenyl)ureido)phenyl)-1,4-dihydroquinoline-3-carboxamide] | 104.5 ± 0.005 nM | 62000 ± 3870 nM | > 300 °C | 
O=C(Nc1ccccc1)Nc1ccc(NC(=O)c2c[nH]c3ccc(F)cc3c2=O)cc1 [Compound 10j, 6-Fluoro-4-oxo-N-(4-(3-phenylureido)phenyl)-1,4-dihydroquinoline-3-carboxamide] | 340 ± 0.01 nM | 41900 ± 2520 nM | > 300 °C | 
O=C(Nc1ccccc1)Nc1ccc(NC(=O)c2c[nH]c3ccc(Cl)cc3c2=O)cc1 [Compound 10a, 6-Chloro-4-oxo-N-(4-(3-phenylureido)phenyl)-1,4-dihydroquinoline-3-carboxamide] | 138 ± 0.01 nM | 4600 ± 280 nM | > 300 °C | 
O=C(Nc1ccc(F)cc1)Nc1ccc(NC(=O)c2c[nH]c3ccc(F)cc3c2=O)cc1 [Compound 10n, 6-Fluoro-N-(4-(3-(4-fluorophenyl)ureido)phenyl)-4-oxo-1,4-dihydroquinoline-3-carboxamide] | 257 ± 0.01 nM | 2880 ± 140 nM | > 300 °C | 
N#Cc1ccc(NC(=O)Nc2ccc(NC(=O)c3c[nH]c4ccc(Cl)cc4c3=O)cc2)cc1 [Compound 10g, 6-Chloro-N-(4-(3-(4-cyanophenyl)ureido)phenyl)-4-oxo-1,4-dihydroquinoline-3-carboxamide] | 1603 ± 0.06 nM | 43200 ± 2590 nM | > 300 °C | 
Cc1ccc(NC(=O)Nc2ccc(NC(=O)c3c[nH]c4ccc(Cl)cc4c3=O)cc2)cc1 [Compound 10b, 6-Chloro-4-oxo-N-(4-(3-(p-tolyl)ureido)phenyl)-1,4-dihydroquinoline-3-carboxamide] | 578 ± 0.03 nM | 50800 ± 3160 nM | > 300 °C | 
O=C(Nc1ccc(F)cc1)Nc1ccc(NC(=O)c2c[nH]c3ccc(Cl)cc3c2=O)cc1 [Compound 10e, 6-Chloro-N-(4-(3-(4-fluorophenyl)ureido)phenyl)-4-oxo-1,4-dihydroquinoline-3-carboxamide] | 197 nM and 179 nM | 880 ± 50 nM | > 300 °C | 
Cc1ccccc1NC(=O)Nc1ccc(NC(=O)c2c[nH]c3ccc(Cl)cc3c2=O)cc1 [Compound 10d, 6-Chloro-4-oxo-N-(4-(3-(o-tolyl)ureido)phenyl)-1,4-dihydroquinoline-3-carboxamide] | 69 ± 0.02 nM | 1070 ± 60 nM | > 300 °C | 
CNC(=O)c1cc(Oc2ccc(NC(=O)Nc3ccc(Cl)c(C(F)(F)F)c3)cc2)ccn1 [Sorafenib] |  | 8380 ± 500 nM |  | Combined apoptosis, percent cell population [9]: 6.37%; Late apoptotic phase, percent cell population [9]: 4.2%; Effect on cell cycle kinetics of HepG2 cells [10]: sequestration of cells in the PreG1 (or Sub-G1 (G0)), as well as cell growth arrest in G2/M phase; CC50 at 48 h [3]: 18500 nM; Effect on Bax expression in HepG2 cells [11]: no significant upregulation; Effect on caspase-7 expression in HepG2 cells [12]: significantly upregulate the expression of caspase-7
Cc1cccc(NC(=O)Nc2ccc(NC(=O)c3c[nH]c4ccc(Cl)cc4c3=O)cc2)c1 [Compound 10c, 6-Chloro-4-oxo-N-(4-(3-(m-tolyl)ureido)phenyl)-1,4-dihydroquinoline-3-carboxamide] | 169 ± 0.01 nM | 4140 ± 250 nM | > 300 °C | 
Cc1cccc(NC(=O)Nc2ccc(NC(=O)c3c[nH]c4ccc(F)cc4c3=O)cc2)c1 [Compound 10l, 6-Fluoro-4-oxo-N-(4-(3-(m-tolyl)ureido)phenyl)-1,4-dihydroquinoline-3-carboxamide] | 317 ± 0.01 nM | 14200 ± 820 nM | > 300 °C | 
CC(C)c1ccc(NC(=O)Nc2ccc(NC(=O)c3c[nH]c4ccc(F)cc4c3=O)cc2)cc1 [Compound 10p, 6-Fluoro-N-(4-(3-(4-isopropylphenyl)ureido)phenyl)-4-oxo-1,4-dihydroquinoline-3-carboxamide] | 97 ± 0.01 nM | 8140 ± 470 nM | > 300 °C | Fold increase in VEGFR-2 inhibitory activity compared to para methyl substituted derivatives 10b and 10k [1]: more than 16 fold
